Test results from ChEMBL document CHEMBL3102853, “Carbonic anhydrase inhibitors. Synthesis, and molecular structure of novel series N-substituted N'-(2-arylmethylthio-4-chloro-5-methylbenzenesulfonyl)guanidines and their inhibition of human cytosolic isozymes I and II and the transmembrane tumor-associated isozymes IX and XII” (Eur J Med Chem, 2014).
The source made the active and inactive calls. The calls are words filed in the database; no cut-off is given here.

Columns and labels:
Format in all cases: functional
MOLT-4 [1] = assay: Cytotoxicity against human MOLT4 cells
MDA-MB-468 [2] = assay: Cytotoxicity against human MDA-MB-468 cells at 10 uM; details: read-out: GI
NCI-H460 [3] = assay: Cytotoxicity against human NCI-H460 cells at 10 uM; details: read-out: GI
SK-MEL-2 [4] = assay: Cytotoxicity against human SK-MEL-2 cells
HT-29 = assay: Cytotoxicity against human HT-29 cells at 10 uM; details: read-out: GI
RPMI-8226 [5] = assay: Cytotoxicity against human RPMI8226 cells at 10 uM; details: read-out: GI
KM12 [6] = assay: Cytotoxicity against human KM12 cells at 10 uM; details: read-out: GI
OVCAR-8 = assay: Cytotoxicity against human OVCAR8 cells
SK-MEL-28 = assay: Cytotoxicity against human SK-MEL-28 cells
KM12 [7] = assay: Cytotoxicity against human KM12 cells
SNB-75 [8] = assay: Cytotoxicity against human SNB75 cells at 10 uM; details: read-out: GI
SF-268 [9] = assay: Cytotoxicity against human SF268 cells at 10 uM; details: read-out: GI
A498 [10] = assay: Cytotoxicity against human A498 cells
MDA-MB-468 [11] = assay: Cytotoxicity against human MDA-MB-468 cells
HCC 2998 = assay: Cytotoxicity against human HCC2998 cells
SW-620 = assay: Cytotoxicity against human SW620 cells at 10 uM; details: read-out: GI
RPMI-8226 [12] = assay: Cytotoxicity against human RPMI8226 cells
K562 [13] = assay: Cytotoxicity against human K562 cells
SR [14] = assay: Cytotoxicity against human SR cells
PC-3 [15] = assay: Cytotoxicity against human PC3 cells at 10 uM; details: read-out: GI
COLO 205 = assay: Cytotoxicity against human COLO205 cells
[16] = Cytotoxicity against human UACC257 cells
[17] = Cytotoxicity against human OVCAR4 cells
SR [18] = assay: Cytotoxicity against human SR cells at 10 uM; details: read-out: GI
SNB-75 [19] = assay: Cytotoxicity against human SNB75 cells
MOLT-4 [20] = assay: Cytotoxicity against human MOLT4 cells at 10 uM; details: read-out: GI
HL-60(TB) [21] = assay: Cytotoxicity against human HL-60(TB) cells
MDA-MB-435 = assay: Cytotoxicity against human MDA-MB-435 cells
OVCAR-3 [22] = assay: Cytotoxicity against human OVCAR3 cells
DU-145 = assay: Cytotoxicity against human DU145 cells at 10 uM; details: read-out: GI
OVCAR-3 [23] = assay: Cytotoxicity against human OVCAR3 cells at 10 uM; details: read-out: GI
BT-549 = assay: Cytotoxicity against human BT549 cells
M14 = assay: Cytotoxicity against human M14 cells
CCRF-CEM = assay: Cytotoxicity against human CCRF-CEM cells
HL-60(TB) [24] = assay: Cytotoxicity against human HL-60(TB) cells at 10 uM; details: read-out: GI
K562 [25] = assay: Cytotoxicity against human K562 cells at 10 uM; details: read-out: GI
SF-539 = assay: Cytotoxicity against human SF539 cells
NCI-H522 = assay: Cytotoxicity against human NCI-H522 cells
[26] = Cytotoxicity against human Hs 578T cells
IGROV-1 = assay: Cytotoxicity against human IGROV1 cells
A498 [27] = assay: Cytotoxicity against human A498 cells at 10 uM; details: read-out: GI
SF-268 [28] = assay: Cytotoxicity against human SF268 cells
T47D [29] = assay: Cytotoxicity against human T47D cells at 10 uM; details: read-out: GI
MDA-MB-231 = assay: Cytotoxicity against human MDA-MB-231 cells
SK-MEL-2 [30] = assay: Cytotoxicity against human SK-MEL-2 cells at 10 uM; details: read-out: GI
MCF7 [31] = assay: Cytotoxicity against human MCF7 cells
LOX IMVI [32] = assay: Cytotoxicity against human LOXIMVI cells
T47D [33] = assay: Cytotoxicity against human T47D cells
[34] = Cytotoxicity against human Hs 578T cells at 10 uM; details: read-out: GI
Malme-3M = assay: Cytotoxicity against human MALME-3M cells
PC-3 [35] = assay: Cytotoxicity against human PC3 cells
MCF7 [36] = assay: Cytotoxicity against human MCF7 cells at 10 uM; details: read-out: GI
HOP-92 [37] = assay: Cytotoxicity against human HOP92 cells
A549 = assay: Cytotoxicity against human A549 cells at 10 uM; details: read-out: GI
NCI/ADR-RES = assay: Cytotoxicity against human NCI-ADR-RES cells at 10 uM
SNB-19 = assay: Cytotoxicity against human SNB19 cells
HCT-116 = assay: Cytotoxicity against human HCT116 cells
HOP-92 [38] = assay: Cytotoxicity against human HOP92 cells at 10 uM; details: read-out: GI
UACC-62 [39] = assay: Cytotoxicity against human UACC62 cells at 10 uM; details: read-out: GI
NCI-H460 [40] = assay: Cytotoxicity against human NCI-H460 cells
LOX IMVI [41] = assay: Cytotoxicity against human LOXIMVI cells at 10 uM; details: read-out: GI
UACC-62 [42] = assay: Cytotoxicity against human UACC62 cells
[43] = read-out: LC50 (the source's name)

Cc1cc(S(=O)(=O)NC(=N)Nc2ccc(S(N)(=O)=O)cc2)c(SCc2ccc(C(F)(F)F)cc2)cc1Cl
GI50 (MOLT-4 [1]): 2.8 µM | TGI (MOLT-4 [1]): 11.2 µM | CC50 (MOLT-4 [1]; [43]): > 100 µM | inhibition of growth at 10 µM (MDA-MB-468 [2]): 63% | inhibition of growth at 10 µM (NCI-H460 [3]): 21% | GI50 (SK-MEL-2 [4]): 2.4 µM | TGI (SK-MEL-2 [4]): 6.3 µM | CC50 (SK-MEL-2 [4]; [43]): 25.3 µM | inhibition of growth at 10 µM (HT-29): 22% | inhibition of growth at 10 µM (RPMI-8226 [5]): 57% | inhibition of growth at 10 µM (KM12 [6]): 50% | GI50 (OVCAR-8): 4.6 µM | TGI (OVCAR-8): 22.9 µM | CC50 (OVCAR-8; [43]): 87.6 µM | GI50 (SK-MEL-28): 4.2 µM | TGI (SK-MEL-28): 15.6 µM | CC50 (SK-MEL-28; [43]): 46.6 µM | GI50 (KM12 [7]): 3.1 µM | TGI (KM12 [7]): 10.9 µM | CC50 (KM12 [7]; [43]): 40.2 µM | inhibition of growth at 10 µM (SNB-75 [8]): 71% | inhibition of growth at 10 µM (SF-268 [9]): 31% | GI50 (A498 [10]): 4.6 µM | TGI (A498 [10]): 21.1 µM | CC50 (A498 [10]; [43]): 53.7 µM | GI50 (MDA-MB-468 [11]): 2.7 µM | TGI (MDA-MB-468 [11]): 15 µM | CC50 (MDA-MB-468 [11]; [43]): 81.6 µM | GI50 (HCC 2998): 3.9 µM | TGI (HCC 2998): 13.8 µM | CC50 (HCC 2998; [43]): 46.2 µM | inhibition of growth at 10 µM (SW-620): 12% | GI50 (RPMI-8226 [12]): 3.1 µM | TGI (RPMI-8226 [12]): 11 µM | CC50 (RPMI-8226 [12]; [43]): > 100 µM | GI50 (K562 [13]): 3.6 µM | TGI (K562 [13]): 21.1 µM | CC50 (K562 [13]; [43]): > 100 µM | GI50 (SR [14]): 2.1 µM | TGI (SR [14]): 5.9 µM | CC50 (SR [14]; [43]): > 100 µM | inhibition of growth at 10 µM (PC-3 [15]): 74% | GI50 (COLO 205): 4.4 µM | TGI (COLO 205): 17.7 µM | CC50 (COLO 205; [43]): 80.6 µM | GI50 ([16]; UACC-257): 3.6 µM | TGI ([16]; UACC-257): 15.2 µM | CC50 ([16]; UACC-257, read-out: LC50 (the source's name)): 41.1 µM | GI50 ([17]; OVCAR-4): 3.9 µM | TGI ([17]; OVCAR-4): 25.1 µM | CC50 ([17]; OVCAR-4, read-out: LC50 (the source's name)): > 100 µM | inhibition of growth at 10 µM (SR [18]): 72% | GI50 (SNB-75 [19]): 2.7 µM | TGI (SNB-75 [19]): 17.4 µM | CC50 (SNB-75 [19]; [43]): 66.1 µM | inhibition of growth at 10 µM (MOLT-4 [20]): 60% | GI50 (HL-60(TB) [21]): 2.1 µM | TGI (HL-60(TB) [21]): 5.5 µM | CC50 (HL-60(TB) [21]; [43]): 34.5 µM | GI50 (MDA-MB-435): 3.8 µM | TGI (MDA-MB-435): 14.8 µM | CC50 (MDA-MB-435; [43]): 46.1 µM | GI50 (OVCAR-3 [22]): 3.9 µM | TGI (OVCAR-3 [22]): 14 µM | CC50 (OVCAR-3 [22]; [43]): 39 µM | inhibition of growth at 10 µM (DU-145): 9% | inhibition of growth at 10 µM (OVCAR-3 [23]): 50% | GI50 (BT-549): 4.6 µM | TGI (BT-549): 18.5 µM | CC50 (BT-549; [43]): 58 µM | GI50 (M14): 7.3 µM | TGI (M14): 22 µM | CC50 (M14; [43]): 56.3 µM | GI50 (CCRF-CEM): 3.8 µM | TGI (CCRF-CEM): 15.2 µM | CC50 (CCRF-CEM; [43]): 86.2 µM | inhibition of growth at 10 µM (HL-60(TB) [24]): 66% | inhibition of growth at 10 µM (K562 [25]): 64% | GI50 (SF-539): 4.8 µM | TGI (SF-539): 18.3 µM | CC50 (SF-539; [43]): 45.1 µM | GI50 (NCI-H522): 3.9 µM | TGI (NCI-H522): 16.3 µM | CC50 (NCI-H522; [43]): 48.5 µM | GI50 [26]: 3.7 µM | TGI [26]: 24.6 µM | CC50 [26, 43]: > 100 µM | GI50 (IGROV-1): 5.8 µM | TGI (IGROV-1): 23.3 µM | CC50 (IGROV-1; [43]): 93 µM | inhibition of growth at 10 µM (A498 [27]): 15% | GI50 (SF-268 [28]): 5.5 µM | TGI (SF-268 [28]): 21.2 µM | CC50 (SF-268 [28]; [43]): 64.8 µM | inhibition of growth at 10 µM (T47D [29]): 58% | GI50 (MDA-MB-231): 2.5 µM | TGI (MDA-MB-231): 11.1 µM | CC50 (MDA-MB-231; [43]): 37 µM | inhibition of growth at 10 µM (SK-MEL-2 [30]): 43% | GI50 (MCF7 [31]): 2.9 µM | TGI (MCF7 [31]): 14.1 µM | CC50 (MCF7 [31]; [43]): 69.7 µM | GI50 (LOX IMVI [32]): 4.9 µM | TGI (LOX IMVI [32]): 17.7 µM | CC50 (LOX IMVI [32]; [43]): 48.4 µM | GI50 (T47D [33]): 5.1 µM | TGI (T47D [33]): 22.8 µM | CC50 (T47D [33]; [43]): 95.8 µM | inhibition of growth at 10 µM [34]: 20% | GI50 (Malme-3M): 6.7 µM | TGI (Malme-3M): 21 µM | CC50 (Malme-3M; [43]): 52.5 µM | GI50 (PC-3 [35]): 3.7 µM | TGI (PC-3 [35]): 13.7 µM | CC50 (PC-3 [35]; [43]): 40.9 µM | inhibition of growth at 10 µM (MCF7 [36]): 69% | GI50 (HOP-92 [37]): 2.7 µM | TGI (HOP-92 [37]): 8.6 µM | CC50 (HOP-92 [37]; [43]): 33.9 µM | inhibition of growth at 10 µM (A549): 32% | growth inhibition (GI) (NCI/ADR-RES): inactive | GI50 (SNB-19): 5 µM | TGI (SNB-19): 21.5 µM | CC50 (SNB-19; [43]): 61.1 µM | GI50 (HCT-116): 4 µM | TGI (HCT-116): 15.4 µM | CC50 (HCT-116; [43]): 45.9 µM | inhibition of growth at 10 µM (HOP-92 [38]): 58% | inhibition of growth at 10 µM (UACC-62 [39]): 49% | GI50 (NCI-H460 [40]): 4.2 µM | TGI (NCI-H460 [40]): 18.5 µM | CC50 (NCI-H460 [40]; [43]): 90 µM | inhibition of growth at 10 µM (LOX IMVI [41]): 29% | GI50 (UACC-62 [42]): 2.6 µM | TGI (UACC-62 [42]): 10.4 µM | CC50 (UACC-62 [42]; [43]): 33 µM
